From patent US9808003B2, “Herbicidally active 2-(substituted-phenyl)-cyclopentane-1,3-dione compounds and derivatives thereof” (Syngenta Limited, priority 2013, dated 2017)

How the values were obtained:
Format in all cases: in vivo
Spring Wheat “Freya” = assay: Test 1B glasshouse assay, post-emergence herbicidal activity against cereal crops
Winter Barley “Suzuka” = assay: as above
Protocol: (§1) Biological Example 1B tests the herbicidal activity of“technical” compounds (i.e. compounds not previously formulated before the test), as the herbicides under test.
(§2) An “instant formulation”, known as the “IF50”, containing 50 g/liter (i.e. 5% w/v) of the “technical” (i.e. unformulated) active ingredient (i.e. the herbicide under test), is prepared by dissolving the active ingredient in a mixture of organic solvents and emulsifier, details of which are provided in the Table below.
(§3) This IF50 is mixed with a small, variable amount of acetone to aid dissolution, before addition of a 0.5% v/v aqueous solution of the adjuvant Adigor™ (an adjuvant containing rapeseed oil methyl ester, ethoxylated alcohols, and a mixture of heavy aromatic hydrocarbons, e.g. available from Syngenta), as the aqueous diluent, to form an aqueous spray solution which contains a predetermined concentration of the active ingredient (which varies depending on the application rate of the active ingredient to the plants) and 0.5% v/v of the adjuvant Adigor™. This aqueous spray solution is suitable for spraying onto plants.
(§4) Seeds of a variety of test species are sown in standard soil in pots. After cultivation for 14 days under controlled conditions in a glasshouse (at 22/16° C., day/night; 16 hours light; 65% humidity), the plants are sprayed post-emergence with the above-mentioned aqueous spray solution containing inter alia the “technical” active ingredient (i.e. the herbicide under test) and the adjuvant Adigor™.
(§5) The test plants are then grown on under controlled conditions in the glasshouse (at 22/16° C., day/night; 16 hours light; 65% humidity) and are watered twice daily. 14 days after application of the test herbicide, the test is evaluated visually for percentage phytotoxicity to the plant (where 100%=total damage to plant; 0%=no damage to plant).
(§6) More specifically, post-emergence herbicidal activity (phytotoxicity) data, on certain tested grassy monocotyledonous weeds (and/or plants of the type Gramineae) and cereal crops in the glasshouse, are measured 14 days after application of the herbicide (14 DAA), typically for inter alia one or more of the following application rates: • (a) a post-emergence application rate of 60 g/ha of the test herbicide with or without 50 g/ha of cloquintocet-mexyl safener, and • (b) a post-emergence application rate of 90 g/ha of the test herbicide with 50 g/ha of cloquintocet-mexyl safener, and • (c) a post-emergence application rate of 120 g/ha of the test herbicide with 50 g/ha of cloquintocet-mexyl safener.
(§7) The cloquintocet-mexyl, when used, is present in the formulation containing the herbicide under test dissolved in acetone plus IF50.
(§8) The range of herbicide application rates tested sometimes includes application rates other than those shown above, and the rates can vary depending on the herbicide under test.
(§9) Herbicidal activity (phytotoxicity) is evaluated visually, and an assessed percentage phytotoxicity score is given for each herbicidal application on each plant species (with 100%=total damage to plant; 0%=no damage to plant; the assessment is recorded in increments of 1%). Two replicates are made for each experiment, and the mean herbicidal activity (phytotoxicity) data is reported.

Winter Wheat “Hereward” = assay: as above
Protocol: as §1, §2, §3, §4, §5, §6, §7, §8, §9

[1] = system: Spring Barley “Harrington”; assay: as above
Protocol: as §1, §2, §3, §4, §5, §6, §7, §8, §9

[2] = system: Lolium multiflorum (LOLMU); assay: Test 1B glasshouse assay, post-emergence herbicidal activity against grassy weeds; conditions: 14 DAA
Protocol: as §1, §2, §3, §4, §5, §6, §7, §8, §9
(§10) For compounds A34, A98, A99, A87, A100, A101, A89, A120, A120A, A120B, A23, A127, A128, A89, A112 and A113 the tested weeds were as follows: Avena fatua (AVEFA), Lolium multiflorum (LOLMU), Setaria viridis (SETVI), Poa annua (POAAN), Alopecurus myosuroides (ALOMY). All five of these are grassy monocotyledonous weeds. Except for SETVI, these are all “cool-season” grassy monocotyledonous weeds.

Avena fatua (AVEFA) = assay: as above; conditions: 14 DAA
Protocol: as §1, §2, §3, §4, §5, §6, §7, §8, §9, §10

Setaria viridis (SETVI) = assay: as above; conditions: 14 DAA
Protocol: as §1, §2, §3, §4, §5, §6, §7, §8, §9, §10

[3] = system: Alopecurus myosuroides (ALOMY); assay: as above; conditions: 14 DAA
Protocol: as §1, §2, §3, §4, §5, §6, §7, §8, §9, §10

Poa annua (POAAN) = assay: as above; conditions: 14 DAA
Protocol: as §1, §2, §3, §4, §5, §6, §7, §8, §9, §10

[4] = herbicide 30 g/ha, cloquintocet-mexyl 50 g/ha
[5] = herbicide 45 g/ha, cloquintocet-mexyl 50 g/ha
[6] = herbicide 60 g/ha, cloquintocet-mexyl 0 g/ha
[7] = herbicide 60 g/ha, cloquintocet-mexyl 50 g/ha
[8] = 30 g/ha herbicide, 50 g/ha cloquintocet-mexyl
[9] = 45 g/ha herbicide, 50 g/ha cloquintocet-mexyl
[10] = 60 g/ha herbicide, 0 g/ha cloquintocet-mexyl
[11] = 60 g/ha herbicide, 50 g/ha cloquintocet-mexyl

| SMILES | Percentage Phytotoxicity Spring Wheat “Freya” (Spring Wheat “Freya”; [4]) | Percentage Phytotoxicity Spring Wheat “Freya” (Spring Wheat “Freya”; [5]) | Percentage Phytotoxicity Spring Wheat “Freya” (Spring Wheat “Freya”; [6]) | Percentage Phytotoxicity Spring Wheat “Freya” (Spring Wheat “Freya”; [7]) | Percentage Phytotoxicity Winter Barley “Suzuka” (Winter Barley “Suzuka”; [4]) | Percentage Phytotoxicity Winter Barley “Suzuka” (Winter Barley “Suzuka”; [5]) | Percentage Phytotoxicity Winter Barley “Suzuka” (Winter Barley “Suzuka”; [6]) | Percentage Phytotoxicity Winter Barley “Suzuka” (Winter Barley “Suzuka”; [7]) | Percentage Phytotoxicity Winter Wheat “Hereward” (Winter Wheat “Hereward”; [4]) | Percentage Phytotoxicity Winter Wheat “Hereward” (Winter Wheat “Hereward”; [5]) | Percentage Phytotoxicity Winter Wheat “Hereward” (Winter Wheat “Hereward”; [6]) | Percentage Phytotoxicity Winter Wheat “Hereward” (Winter Wheat “Hereward”; [7]) | Percentage Phytotoxicity Spring Barley “Harrington” [1, 4] | Percentage Phytotoxicity Spring Barley “Harrington” [1, 5] | Percentage Phytotoxicity Spring Barley “Harrington” [1, 6] | Percentage Phytotoxicity Spring Barley “Harrington” [1, 7] | Post-emergence herbicidal activity, percentage phytotoxicity, LOLMU [2, 8] | Post-emergence herbicidal activity, percentage phytotoxicity, LOLMU [2, 9] | Post-emergence herbicidal activity, percentage phytotoxicity, LOLMU [2, 10] | Post-emergence herbicidal activity, percentage phytotoxicity, LOLMU [2, 11] | also measured |
| --- | --- | --- | --- | --- | --- | --- | --- | --- | --- | --- | --- | --- | --- | --- | --- | --- | --- | --- | --- | --- | --- |
| Cc1cc(C)c(C2C(=O)C[C@@H](CCNC(=O)c3cccc(F)n3)C2=O)c(C)c1 (stereo partly drawn) [Compound A112] | 25% | 33% | 75% | 50% | 18% | 30% | 88% | 53% | 33% | 40% | 85% | 50% | 30% | 45% | 93% | 73% | 98% | 100% | 100% | 100% | Post-emergence herbicidal activity, percentage phytotoxicity, AVEFA (Avena fatua (AVEFA); [8]): 93%; Post-emergence herbicidal activity, percentage phytotoxicity, AVEFA (Avena fatua (AVEFA); [9]): 94%; Post-emergence herbicidal activity, percentage phytotoxicity, AVEFA (Avena fatua (AVEFA); [10]): 98%; Post-emergence herbicidal activity, percentage phytotoxicity, AVEFA (Avena fatua (AVEFA); [11]): 97%; Post-emergence herbicidal activity, percentage phytotoxicity, SETVI (Setaria viridis (SETVI); [8]): 100%; Post-emergence herbicidal activity, percentage phytotoxicity, SETVI (Setaria viridis (SETVI); [9]): 100%; Post-emergence herbicidal activity, percentage phytotoxicity, SETVI (Setaria viridis (SETVI); [10]): 100%; Post-emergence herbicidal activity, percentage phytotoxicity, SETVI (Setaria viridis (SETVI); [11]): 100%; Post-emergence herbicidal activity, percentage phytotoxicity, ALOMY [3, 8]: 97%; Post-emergence herbicidal activity, percentage phytotoxicity, ALOMY [3, 9]: 97%; Post-emergence herbicidal activity, percentage phytotoxicity, ALOMY [3, 10]: 99%; Post-emergence herbicidal activity, percentage phytotoxicity, ALOMY [3, 11]: 98%; Post-emergence herbicidal activity, percentage phytotoxicity, POAAN (Poa annua (POAAN); [8]): 0%; Post-emergence herbicidal activity, percentage phytotoxicity, POAAN (Poa annua (POAAN); [9]): 0%; Post-emergence herbicidal activity, percentage phytotoxicity, POAAN (Poa annua (POAAN); [10]): 40%; Post-emergence herbicidal activity, percentage phytotoxicity, POAAN (Poa annua (POAAN); [11]): 13% |
| Cc1cc(C)c(C2C(=O)C[C@H](CCNC(=O)c3cccc(F)n3)C2=O)c(C)c1 (stereo partly drawn) [Compound A113] | 3% | 0% | 7% | 0% | 0% | 0% | 28% | 0% | 0% | 0% | 3% | 0% | 0% | 0% | 33% | 8% | 3% | 20% | 45% | 23% | Post-emergence herbicidal activity, percentage phytotoxicity, AVEFA (Avena fatua (AVEFA); [8]): 1%; Post-emergence herbicidal activity, percentage phytotoxicity, AVEFA (Avena fatua (AVEFA); [9]): 3%; Post-emergence herbicidal activity, percentage phytotoxicity, AVEFA (Avena fatua (AVEFA); [10]): 5%; Post-emergence herbicidal activity, percentage phytotoxicity, AVEFA (Avena fatua (AVEFA); [11]): 3%; Post-emergence herbicidal activity, percentage phytotoxicity, SETVI (Setaria viridis (SETVI); [8]): 5%; Post-emergence herbicidal activity, percentage phytotoxicity, SETVI (Setaria viridis (SETVI); [9]): 40%; Post-emergence herbicidal activity, percentage phytotoxicity, SETVI (Setaria viridis (SETVI); [10]): 53%; Post-emergence herbicidal activity, percentage phytotoxicity, SETVI (Setaria viridis (SETVI); [11]): 55%; Post-emergence herbicidal activity, percentage phytotoxicity, ALOMY [3, 8]: 0%; Post-emergence herbicidal activity, percentage phytotoxicity, ALOMY [3, 9]: 18%; Post-emergence herbicidal activity, percentage phytotoxicity, ALOMY [3, 10]: 20%; Post-emergence herbicidal activity, percentage phytotoxicity, ALOMY [3, 11]: 25%; Post-emergence herbicidal activity, percentage phytotoxicity, POAAN (Poa annua (POAAN); [8]): 0%; Post-emergence herbicidal activity, percentage phytotoxicity, POAAN (Poa annua (POAAN); [9]): 0%; Post-emergence herbicidal activity, percentage phytotoxicity, POAAN (Poa annua (POAAN); [10]): 8%; Post-emergence herbicidal activity, percentage phytotoxicity, POAAN (Poa annua (POAAN); [11]): 0% |
